Test system: BT-474 cancer cells
Assay: Inhibition of BT-474 cell proliferation (CellTiter-Glo)
Format: cell-based
Conditions: Homo sapiens, BT-474 cells, 120 hours
Summary of the method: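 BT-474 cells in RPMI-1640 with 20% FBS, seeded 48 h before dosing with 11 three-fold dilutions (final 0.2 nM to 10 μM). Viability read by CellTiter-Glo luminescence 120 h after treatment, triplicate tests. GI50 derived from growth rate (%) versus control.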

Structure (SMILES) | GI50
COc1cc2ncnc(Nc3cc(C)c(Oc4ccc(C(=O)N(C)C)cc4)cc3OC)c2cc1NC(=O)/C(F)=C/[C@H]1CCCN1C [Example 125, (R,Z)-4-(4-((6-(2-fluoro-3-(1-methylpyrrolidin-2-yl)acrylamido)-7-methoxyquinazolin-4-yl)amino)-5-methoxy-2-methylphenoxy)-N,N-dimethylbenzamide] | 50 to 100 nM
COc1cc2ncnc(Nc3cc(N(C)C)c(Oc4ccn5ncnc5c4)cc3OC)c2cc1NC(=O)/C(F)=C\[C@H]1CCCN1C [Example 127, (R,E)-N-(4-((4-([1,2,4]triazolo[1,5-a]pyridin-7-yloxy)-5-(dimethylamino)-2-methoxyphenyl)amino)-7-methoxyquinazolin-6-yl)-2-fluoro-3-(1-methylpyrrolidin-2-yl)acrylamide] | 100 to 500 nM
COc1cc2ncnc(Nc3cc(C)c(Oc4ccn5ncnc5c4)cc3OC)c2cc1NC(=O)/C(F)=C/[C@H]1CCCCN1C [Example 131, (R,Z)—N-(4-((4-([1,2,4]triazolo[1,5-a]pyridin-7-yloxy)-2-methoxy-5-methylphenyl)amino)-7-methoxyquinazolin-6-yl)-2-fluoro-3-(1-methylpiperidin-2-yl)acrylamide] | ≤ 50 nM
CCOc1cc2ncc(C#N)c(Nc3cc(C)c(Oc4ccn5ncnc5c4)cc3OC)c2cc1NC(=O)/C(F)=C\[C@H]1CCCN1C [Example 132, (R,E)-N-(4-((4-([1,2,4]triazolo[1,5-a]pyridin-7-yloxy)-2-methoxy-5-methylphenyl)amino)-3-cyano-7-ethoxyquinolin-6-yl)-2-fluoro-3-(1-methylpyrrolidin-2-yl)acrylamide] | 100 to 500 nM
COc1cc2ncnc(Nc3cc(C)c(Oc4cccc(NC(C)=O)c4)cc3OC)c2cc1NC(=O)/C(F)=C/[C@H]1CCCN1C [Example 133, (R,Z)—N-(4-((4-(3-acetamidophenoxy)-2-methoxy-5-methylphenyl)amino)-7-methoxyquinazolin-6-yl)-2-fluoro-3-(1-methylpyrrolidin-2-yl)acrylamide] | ≤ 50 nM
COc1cc2ncnc(Nc3cc(C4CC4)c(Oc4ccn5ncnc5c4)cc3OC)c2cc1NC(=O)/C(F)=C/[C@H]1CCCN1C [Example 137, (R,Z)—N-(4-((4-([1,2,4]triazolo[1,5-a]pyridin-7-yloxy)-5-cyclopropyl-2-methoxyphenyl)amino)-7-methoxyquinazolin-6-yl)-2-fluoro-3-(1-methylpyrrolidin-2-yl)acrylamide] | 50 to 100 nM
COc1cc(Oc2ccn3ncnc3c2)c(C)cc1Nc1ncnc2ccc(NC(=O)/C(F)=C/[C@H]3CCCN3C)c(Cl)c12 [Example 141, (R,Z)—N-(4-((4-([1,2,4]triazolo[1,5-a]pyridin-7-yloxy)-2-methoxy-5-methylphenyl)amino)-5-chloroquinazolin-6-yl)-2-fluoro-3-(1-methylpyrrolidin-2-yl)acrylamide] | ≤ 50 nM
COc1cc2ncnc(Nc3cc(C)c(Oc4ccn5ncnc5c4)cc3OC)c2cc1NC(=O)/C(C#N)=C\C(C)(C)N1CCN(C2COC2)CC1 [Example 144, (Z)—N-(4-((4-([1,2,4]triazolo[1,5-a]pyridin-7-yloxy)-2-methoxy-5-methylphenyl)amino)-7-methoxyquinazolin-6-yl)-2-cyano-4-methyl-4-(4-(oxetan-3-yl)piperazin-1-yl)pent-2-enamide] | > 500 nM
C=C(C(=O)Nc1cc2c(Nc3cc(C)c(Oc4ccn5ncnc5c4)cc3OC)ncnc2cc1OC)n1cccn1 [Example 147, N-(4-((4-([1,2,4]triazolo[1,5-a]pyridin-7-yloxy)-2-methoxy-5-methylphenyl)amino)-7-methoxyquinazolin-6-yl)-2-(1H-pyrazol-1-yl)acrylamide] | 100 to 500 nM
[2H]C([2H])([2H])Oc1cc(Oc2ccn3ncnc3c2)c(C)cc1Nc1ncnc2cc(OC)c(NC(=O)/C=C/[C@H]3CCCN3C)cc12 [Example 148, (R,E)-N-(4-((4-([1,2,4]triazolo[1,5-a]pyridin-7-yloxy)-2-(methoxy-d3)-5-methylphenyl)amino)-7-methoxyquinazolin-6-yl)-3-(1-methylpyrrolidin-2-yl)acrylamide] | ≤ 50 nM
[2H]C([2H])([2H])Oc1cc(Oc2ccn3ncnc3c2)c(F)cc1Nc1ncnc2cc(OC)c(NC(=O)/C(F)=C/[C@H]3CCCN3C)cc12 [Example 151, (R,Z)—N-(4-((4-([1,2,4]triazolo[1,5-a]pyridin-7-yloxy)-5-fluoro-2-(methoxy-d3)phenyl)amino)-7-methoxyquinazolin-6-yl)-2-fluoro-3-(1-methylpyrrolidin-2-yl)acrylamide] | ≤ 50 nM
[2H]C([2H])([2H])Oc1cc(Oc2ccn3ncnc3c2)c(F)cc1Nc1ncnc2cc(OC)c(NC(=O)/C(F)=C\[C@H]3CCCN3C)cc12 [Example 152, (R,E)-N-(4-((4-([1,2,4]triazolo[1,5-a]pyridin-7-yloxy)-5-fluoro-2-(methoxy-d3)phenyl)amino)-7-methoxyquinazolin-6-yl)-2-fluoro-3-(1-methylpyrrolidin-2-yl)acrylamide] | ≤ 50 nM
[2H]C([2H])([2H])N1CCC[C@@H]1/C=C/C(=O)Nc1cc2c(Nc3cc(C)c(Oc4ccn5ncnc5c4)cc3OC)ncnc2cc1OC [Example 153, (R,E)-N-(4-((4-([1,2,4]triazolo[1,5-a]pyridin-7-yloxy)-2-methoxy-5-methylphenyl)amino)-7-methoxyquinazolin-6-yl)-3-(1-(methyl-d3)pyrrolidin-2-yl)acrylamide] | ≤ 50 nM
[2H]C([2H])([2H])N1CCC[C@@H]1/C=C(\F)C(=O)Nc1cc2c(Nc3cc(C)c(Oc4ccn5ncnc5c4)cc3OC)ncnc2cc1OC [Example 154, (R,Z)—N-(4-((4-([1,2,4]triazolo[1,5-a]pyridin-7-yloxy)-2-methoxy-5-methylphenyl)amino)-7-methoxyquinazolin-6-yl)-2-fluoro-3-(1-(methyl-d3)pyrrolidin-2-yl)acrylamide] | ≤ 50 nM
[2H]C([2H])([2H])N1CCC[C@@H]1/C=C(\F)C(=O)Nc1cc2c(Nc3cc(F)c(Oc4ccn5ncnc5c4)cc3OC)ncnc2cc1OC [Example 155, (R,Z)—N-(4-((4-([1,2,4]triazolo[1,5-a]pyridin-7-yloxy)-5-fluoro-2-methoxyphenyl)amino)-7-methoxyquinazolin-6-yl)-2-fluoro-3-(1-(methyl-d3)pyrrolidin-2-yl)acrylamide] | ≤ 50 nM
[2H]C([2H])([2H])N1CCC[C@@H]1/C=C(\F)C(=O)Nc1cc2c(Nc3cc(Cl)c(Oc4ccn5ncnc5c4)cc3OC)ncnc2cc1OC [Example 156, (R,Z)—N-(4-((4-([1,2,4]triazolo[1,5-a]pyridin-7-yloxy)-5-chloro-2-methoxyphenyl)amino)-7-methoxyquinazolin-6-yl)-2-fluoro-3-(1-(methyl-d3)pyrrolidin-2-yl)acrylamide] | ≤ 50 nM
[2H]C([2H])([2H])N1CCC[C@@H]1/C=C(/F)C(=O)Nc1cc2c(Nc3cc(F)c(Oc4ccn5ncnc5c4)cc3OC)ncnc2cc1OC [Example 157, (R,E)-N-(4-((4-([1,2,4]triazolo[1,5-a]pyridin-7-yloxy)-5-fluoro-2-methoxyphenyl)amino)-7-methoxyquinazolin-6-yl)-2-fluoro-3-(1-(methyl-d3)pyrrolidin-2-yl)acrylamide] | ≤ 50 nM

Other lines, results leading:

GI50 | Structure (SMILES)
50 to 100 nM | COc1cc2ncnc(Nc3cc(C)c(Oc4ccc(N(C)C)cc4)cc3OC)c2cc1NC(=O)/C(F)=C\[C@H]1CCCN1C [Example 123, (R,E)-N-(4-((4-(4-(dimethylamino)phenoxy)-2-methoxy-5-methylphenyl)amino)-7-methoxyquinazolin-6-yl)-2-fluoro-3-(1-methylpyrrolidin-2-yl)acrylamide]
100 to 500 nM | COc1cc2ncnc(Nc3cc(C)c(Oc4ccc(C(=O)N(C)C)cc4)cc3OC)c2cc1NC(=O)/C(F)=C\[C@H]1CCCN1C [Example 126, (R,E)-4-(4-((6-(2-fluoro-3-(1-methylpyrrolidin-2-yl)acrylamido)-7-methoxyquinazolin-4-yl)amino)-5-methoxy-2-methylphenoxy)-N,N-dimethylbenzamide]
≤ 50 nM | COc1cc2ncnc(Nc3cc(C)c(Oc4ccn5ncnc5c4)cc3OC)c2cc1NC(=O)/C(F)=C/[C@H]1CCCN1 [Example 135, (R,Z)—N-(4-((4-([1,2,4]triazolo[1,5-a]pyridin-7-yloxy)-2-methoxy-5-methylphenyl)amino)-7-methoxyquinazolin-6-yl)-2-fluoro-3-(pyrrolidin-2-yl)acrylamide]
≤ 50 nM | COc1cc2ncnc(Nc3cc(Br)c(Oc4ccn5ncnc5c4)cc3OC)c2cc1NC(=O)/C(F)=C/[C@H]1CCCN1C [Example 139, (R,Z)—N-(4-((4-([1,2,4]triazolo[1,5-a]pyridin-7-yloxy)-5-bromo-2-methoxyphenyl)amino)-7-methoxyquinazolin-6-yl)-2-fluoro-3-(1-methylpyrrolidin-2-yl)acrylamide]
≤ 50 nM | COc1cc2ncnc(Nc3cc(Br)c(Oc4ccn5ncnc5c4)cc3OC)c2cc1NC(=O)/C(F)=C\[C@H]1CCCN1C [Example 140, (R,E)-N-(4-((4-([1,2,4]triazolo[1,5-a]pyridin-7-yloxy)-5-bromo-2-methoxyphenyl)amino)-7-methoxyquinazolin-6-yl)-2-fluoro-3-(1-methylpyrrolidin-2-yl)acrylamide]
≤ 50 nM | [2H]C([2H])([2H])Oc1cc(Oc2ccn3ncnc3c2)c(C)cc1Nc1ncnc2cc(OC)c(NC(=O)/C(F)=C/[C@H]3CCCN3C)cc12 [Example 149, (R,Z)—N-(4-((4-([1,2,4]triazolo[1,5-a]pyridin-7-yloxy)-2-(methoxy-d3)-5-methylphenyl)amino)-7-methoxyquinazolin-6-yl)-2-fluoro-3-(1-methylpyrrolidin-2-yl)acrylamide]
≤ 50 nM | [2H]C([2H])([2H])Oc1cc(Oc2ccn3ncnc3c2)c(C)cc1Nc1ncnc2cc(OC)c(NC(=O)/C(F)=C\[C@H]3CCCN3C)cc12 [Example 150, (R,E)-N-(4-((4-([1,2,4]triazolo[1,5-a]pyridin-7-yloxy)-2-(methoxy-d3)-5-methylphenyl)amino)-7-methoxyquinazolin-6-yl)-2-fluoro-3-(1-methylpyrrolidin-2-yl)acrylamide]
